How the values were obtained:
Assay type in all cases: cell-based, human
[1] = test system: 4 kinds of ARaiv1 clones (ARaiv1, ARaiv1Δ1, ARaiv1Δ2, ARaiv1Δ3); test: reporter gene assay of ARaiv1 clones with pGL3-2×PSA reporter in COS7 cell (luciferase); conditions: bicalutamide added 24 hr after cotransfection, luciferase assay 24 hr later
Procedure: The above-mentioned 4 kinds of ARaiv1 clones (ARaiv1 and ARaiv1Δ1, ARaiv1Δ2 and ARaiv1Δ3) were respectively subcloned to a pcDNA3.1 expression vector, and the transcription activity was examined by a reporter gene assay. The ARaiv1 clone expression vector and pGL3-2×PSA reporter were cotransfected into COS7 cell. After 24 hr, DHT or an AR antagonist bicalutamide, was added, and 24 hr later, a luciferase assay was performed.

JDCaP-hr cells = test: JDCaP-hr cell proliferation after siRNA transfection; conditions: cultured for 5 days; for growth promotion due to DHT: DHT added; for cell proliferation (growth inhibition): androgen-free conditions
Procedure: siRNA targeting AR-specific exon 8 (siAR), siRNA targeting ARaiv1-specific exon 4b (siARaiv1) or siRNA targeting exon 1 common to the both (siDual) was transfected into JDCaP-hr cells, the cells were cultured for 5 days in an androgen-free medium added with DHT or DMSO, and the cell proliferation was measured (FIG. 7). […] On the other hand, the growth inhibitory effect was partial in the siAR transfection group.

full-length AR = test: Western blotting of AR production after siRNA transfection in JDCaP-hr cells; conditions: 48 hr from siRNA transfection
From the text: (§1) An siRNA targeting exon 4b specific to ARaiv1 (siARaiv1: 5′-[…]-3′ (SEQ ID NO: 29)) was designed and synthesized by Qiagen. In addition, an siRNA targeting exon 8 specific to AR (siAR: Hs_AR—6_HP Validated siRNA: 5′-[…]-3′ (SEQ ID NO: 30)) and an siRNA cocktail containing siRNA targeting exon 1 common to AR and ARaiv1 (siDual: OTP SMART pool, L-003400-00-0005) were purchased from Qiagen and Dharmacon, respectively. siAR, siARaiv1 or siDual was transfected into JDCaP-hr cells. RNA was extracted from the cells after 48 hr from the siRNA transfection, and the expression level of the target gene was analyzed by quantitative RT-PCR. As a result, it was confirmed that gene knockdown by each siRNA was carried out sufficiently efficiently (FIG. 6a). To examine changes in the C-terminally defective-type AR protein production, which were caused by the ARaiv1 knockdown, an extract was prepared from the cells after 48 hr from the siRNA transfection, and the production of AR and β-actin was examined by Western blotting. The production of only full-length AR in the siAR transfection group, only C-terminally defective-type AR in the siARaiv1 transfection group, and the both in the siDual transfection group decreased (FIG. 6b).

22Rv1 cells = test: colony formation assay of 22Rv1 cells after shRNA expression vector transfection; conditions: androgen-free conditions
From the text: Expression plasmids of shRNA targeting AR-specific exon 8 (shAR), shRNA targeting ARaiv1-specific exon 4b (shARaiv1) and shRNA targeting exon 1 common to the both (shDual) were constructed using siSTRIKE U6 hairpin cloning system (Promega). The target sequences of shAR and siARaiv1 were the same as those of the above-mentioned siAR and siARaiv1. As the target sequence of shRNA specific to exon 1 (shDual), the sequence of exon 1-specific siRNA (5′-[…]-3′ (SEQ ID NO: 31)) contained in siDual was used.
The expression vector of shAR, siARaiv1 or shDual was transfected into 22Rv1 cells, and a colony formation assay was carried out under androgen-free conditions. In the siARaiv1 transfection group, the number of colonies decreased to 19% of that of the non-specific shRNA (shNS) transfection group (NS group). In the shDual transfection group, the number of colonies decreased to 4% of that of the NS group, and remarkable suppression of colony formation was observed. On the other hand, the colony formation ability of the shAR transfection group was 54% of the NS group, and the decrease was weaker as compared to the ARaiv1 knockdown group.

[2] = test system: C-terminally defective-type AR; test: Western blotting of AR production after siRNA transfection in JDCaP-hr cells; conditions: 48 hr from siRNA transfection
From the text: as §1

Compound	transcription activity of 4 kinds of ARaiv1 clones (reporter activity) [1]	growth promotion due to DHT (JDCaP-hr cells)	cell proliferation (growth inhibition) (JDCaP-hr cells)	production of full-length AR (full-length AR)	number of colonies relative to non-specific shRNA (NS) group (22Rv1 cells) [%]	production of C-terminally defective-type AR [2]
CC(O)(CS(=O)(=O)c1ccc(F)cc1)C(=O)Nc1ccc(C#N)c(C(F)(F)F)c1 (centres unmarked) [bicalutamide]	not inhibited	–	–	–	–	–
siAR: siRNA targeting exon 8 specific to AR, Hs_AR—6_HP Validated siRNA: 5′-ggaacucgaucguaucauu-3′ (SEQ ID NO: 30) (GGAACUCGAUCGUAUCAUU; chemistry not given here)	–	remarkably inhibited	partial	decreased	–	–
siARaiv1: siRNA targeting exon 4b specific to ARaiv1: 5′-gattgttcttgatcacata-3′ (SEQ ID NO: 29) (GATTGTTCTTGATCACATA; listed as DNA, chemistry not given here)	–	growth promotion due to DHT was observed	remarkable growth inhibition	–	19	decreased
